Laboratory results as given in article PMC6487875 (Biochemistry, 2018).
pIC50: −log10 of the molar value.

Columns and labels:
[1] = biological target: T1, GOT1 (glutamate oxaloacetate transaminase 1, aspartate aminotransferase 1) (Homo sapiens, UniProt P17174); experiment: GLOX/HRP-coupled enzyme kinetics; format: biochemical
[2] = biological target: T1, GOT1 (glutamate oxaloacetate transaminase 1, aspartate aminotransferase 1); experiment: X-ray crystal structure, […] Å; format: binding
[3] = biological target: T1, GOT1 (glutamate oxaloacetate transaminase 1, aspartate aminotransferase 1); experiment: GLOX/HRP-coupled GOT1 enzyme assay; format: biochemical

T1 sequence (P17174 2-413): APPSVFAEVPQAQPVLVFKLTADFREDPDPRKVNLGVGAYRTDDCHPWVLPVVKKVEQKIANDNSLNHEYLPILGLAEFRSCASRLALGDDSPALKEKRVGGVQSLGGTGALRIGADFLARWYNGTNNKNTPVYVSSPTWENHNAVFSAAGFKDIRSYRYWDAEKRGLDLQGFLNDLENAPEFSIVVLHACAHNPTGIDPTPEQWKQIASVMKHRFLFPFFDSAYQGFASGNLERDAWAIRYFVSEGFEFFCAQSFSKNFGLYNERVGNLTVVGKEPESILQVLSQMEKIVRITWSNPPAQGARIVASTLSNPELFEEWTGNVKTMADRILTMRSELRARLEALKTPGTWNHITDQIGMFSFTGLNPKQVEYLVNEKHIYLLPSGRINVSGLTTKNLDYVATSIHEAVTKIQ

O=C(O)CCC(=O)C(=O)O [α-ketoglutarate]
Km [1]: ~ 0.5 mM

Cc1ncc(COP(=O)(O)O)c(C=O)c1O [PLP]
X-ray crystal structure, 2.10 Å [2]: The WT-GOT1 structure is a homodimer, each of which contains PLP.

O=C(Nc1ccccc1)N1CCN(c2cccc3[nH]ccc23)CC1 [iGOT1-01]
pIC50 [3]: 4.95
